Assay results published in patent US20130172345A1, “1-ACYL-4-(PHENOXY, BENZYLOXY, OR PHENYLAMINO)-1,2,3,4-TETRAHYDROQUINOLINE DERIVATIVES” (KOWA COMPANY, LTD., priority 2007, published 2013).
Where a name gives a salt, the structure may show the parent alone.

Experiments:
[1] = test system: HepG2 cells originating from human liver cancer; assay: EPO production in HepG2 cells (EPO ELISA of culture supernatant, 4% oxygen, 48 hrs); type: cell-based; settings: test compound 3 μM, oxygen 4%, non-stimulated state = 100%, read-out: EPO production amount, % of control (3 μM)
Method: HepG2 cells originating from human liver cancer were seeded at a density of 1×10^4 cells per well on a 24-well plate by using minimum essential medium (MEM, manufactured by Sigma) comprising 10% bovine fetal serum. Next day, the medium was exchanged with Dulbecco's modified eagle medium (DMEM, manufactured by Sigma) comprising 10% bovine fetal serum lacking phenol red. Then, the test compound dissolved in DMSO was added thereto to obtain the final concentration of 3 μM or 10 μM while having 400 μl of the medium per well. The cells were incubated for 48 hrs in a CO2 incubator which had been adjusted to have oxygen concentration of 4%, followed by collecting the culture supernatant. The EPO concentration in the culture supernatant was immediately measured by using EPO ELISA kit (manufactured by Roche Diagnostics K.K.). Specific procedures were carried out according to the manufacturer's protocol included in the kit.
When EPO production amount in non-stimulated state, i.e., without addition of any compound, was 100%, the EPO production amount induced by each compound was calculated (% of control).

[2] = test system: K562 cells, human proerythroblast cells; assay: Hemoglobin production in K562 cells (fluorescence of the porphyrin ring); type: cell-based; settings: 144 h, test compound 6 μM, 3+3 days, non-stimulated state = 100%, read-out: production amount of hemoglobin, % of control (6 μM)
Method in brief: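 K562 cells at 1×10^5 cells/mL in RPMI-1640 with 10% FBS, exposed to compound 3 days, medium exchanged, then 3 more days at 37 °C, 5% CO2. Hemoglobin from 3×10^5 cells measured as porphyrin fluorescence after boiling 30 min in 2 M oxalic acid; expressed as % of untreated control.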

Compound	activity at 3 µM [1]	activity at 6 µM [2]
CC(=O)N1c2ccccc2C(Nc2ccc(F)cc2)CC1C (centres unmarked) [Compound 15, 1-acetyl-4-[(4-fluorophenyl)amino]-2-methyl-1,2,3,4-tetrahydroquinoline]	348%	409%
CC(=O)N1CCN(c2ccc3c(c2)[C@H](Nc2ccc(Cl)cc2)C[C@H](C)N3C(C)=O)CC1 (relative stereo) [Compound 79, cis-1-acetyl-6-[(4-acetyl)piperazino]-4-[(4-chlorophenyl)amino]-2-methyl-1,2,3,4-tetrahydroquinoline]	476%	186%
CC(=O)N1c2ccccc2C(Nc2ccccc2N2CCOCC2)CC1C (centres unmarked) [Compound 72, 1-acetyl-2-methyl-4-[(2-morpholinophenyl)amino]-1,2,3,4-tetrahydroquinoline]	243%	577%
CCOC(=O)Cc1ccc(NC2CC(C)N(C(C)=O)c3ccc(F)cc32)cc1 (centres unmarked) [Compound 122, 1-acetyl-4-[(4-ethoxycarbonylmethylphenyl)amino]-6-fluoro-2-methyl-1,2,3,4-tetrahydroquinoline]	139%	213%
CC(=O)N1c2ccc(C(N)=O)cc2C(Nc2ccc(N3CCOCC3)cc2)CC1C (centres unmarked) [Compound 92, 1-acetyl-2-methyl-4-[(4-morpholinophenyl)amino]-1,2,3,4-tetrahydroquinoline-6-carboxamide]	192%	128%
CC(=O)N1c2cc(Br)ccc2[C@H](Nc2ccccc2)C[C@@H]1C (relative stereo) [Compound 23, cis-1-acetyl-7-bromo-2-methyl-4-phenylamino-1,2,3,4-tetrahydroquinoline]	135%	544%
CC(=O)N1c2ccccc2[C@H](Oc2ccc(F)cc2F)C[C@@H]1C (relative stereo) [Compound 30, cis-1-acetyl-4-(2,4-difluorophenoxy)-2-methyl-1,2,3,4-tetrahydroquinoline]	339%	136%
CC(=O)N1c2ccc(F)cc2C(Nc2ccc(CC(=O)N(C)C)cc2)CC1C (centres unmarked) [Compound 125, 1-acetyl-4-[4-(N,N-dimethylaminocarbonylmethyl)phenylamino]-6-fluoro-2-methyl-1,2,3,4-tetrahydroquinoline]	148%	118%
CC(=O)N1c2ccccc2C(Nc2ccc(Oc3ccccc3)cc2)CC1C (centres unmarked) [Compound 17, 1-acetyl-4-[(4-phenoxyphenyl)amino]-2-methyl-1,2,3,4-tetrahydroquinoline]	172%	517%
CC(=O)N1c2ccccc2[C@H](Oc2ccc(F)c(F)c2)C[C@@H]1C (relative stereo) [Compound 31, cis-1-acetyl-4-(3,4-difluorophenoxy)-2-methyl-1,2,3,4-tetrahydroquinoline]	302%	156%
CC(=O)N1c2ccc(N3CCN(C(=O)C(C)C)CC3)cc2C(Nc2ccc(NS(C)(=O)=O)cc2)CC1C (centres unmarked) [Compound 111, 1-acetyl-6-[(4-isopropylcarbonyl)piperazino]-4-[(4-methanesulfonylaminophenyl)amino]-2-methyl-1,2,3,4-tetrahydroquinoline]	126%	46%
CC(=O)N1c2ccccc2C(Nc2ccc(N3CCNCC3)cc2)CC1C (centres unmarked) [Compound 76, 1-acetyl-2-methyl-4-[(4-piperazinylphenyl)amino]-1,2,3,4-tetrahydroquinoline]	227%	185%
CCOC(=O)Nc1ccc2c(c1)C(Nc1ccc(Cl)cc1)CC(C)N2C(C)=O (centres unmarked) [Compound 97, 1-acetyl-4-[(4-chlorophenyl)amino]-2-methyl-1,2,3,4-tetrahydroquinoline-6-ethylcarbamate]	264%	553%
CC(=O)N1c2ccccc2C(Nc2ccc(N(C)C)cc2)CC1C (centres unmarked) [Compound 20, 1-acetyl-4-[(4-N,N-dimethylaminophenyl)amino]-2-methyl-1,2,3,4-tetrahydroquinoline.2 hydrochloride]	174%	117%
CC(=O)N1c2ccccc2C(Nc2ccc(N3CCOCC3)cc2)CC1C (stereo not drawn) [Compound 19, cis-1-acetyl-2-methyl-4-[(4-morpholinophenyl)amino]-1,2,3,4-tetrahydroquinoline.hydrochloride]	191%	284%
CC(=O)N1c2cc(NS(C)(=O)=O)ccc2C(Nc2ccc(Cl)cc2)CC1C (centres unmarked) [Compound 107, 1-acetyl-4-[(4-chlorophenyl)amino]-7-methanesulfonylamino-2-methyl-1,2,3,4-tetrahydroquinoline.hydrochloride]	130%	139%

Compound	activity at 3 µM [1]	activity at 6 µM [2]
CC(=O)N1c2ccccc2[C@H](Oc2ccccc2F)C[C@@H]1C (relative stereo) [Compound 29, cis-1-acetyl-4-(2-fluorophenoxy)-2-methyl-1,2,3,4-tetrahydroquinoline]	305%	201%
CCC(=O)N1c2ccccc2C(Nc2ccccc2)CC1C (centres unmarked) [Compound 3, 2-methyl-4-phenylamino-1-propionyl-1,2,3,4-tetrahydroquinoline]	187%	912%
CC(=O)N1c2c(F)cccc2[C@H](Nc2ccccc2F)C[C@@H]1C (relative stereo) [Compound 4, cis-1-acetyl-8-fluoro-4-[(2-fluorophenyl)amino]-2-methyl-1,2,3,4-tetrahydroquinoline]	163%	92%
COCc1ccc(NC2CC(C)N(C(C)=O)c3ccccc32)cc1 (centres unmarked) [Compound 69, 1-acetyl-4-[(4-methoxymethylphenyl)amino]-2-methyl-1,2,3,4-tetrahydroquinoline]	150%	407%
CC(=O)N1c2cc(N3CCOCC3)ccc2C(Nc2ccc(Cl)cc2)CC1C (centres unmarked) [Compound 44, 1-acetyl-4-[(4-chlorophenyl)amino]-2-methyl-7-morpholino-1,2,3,4-tetrahydroquinoline]	301%	162%
CC(=O)N1c2ccccc2[C@H](Oc2ccc(F)cc2)C[C@@H]1C (relative stereo) [Compound 27, cis-1-acetyl-4-(4-fluorophenoxy)-2-methyl-1,2,3,4-tetrahydroquinoline]	292%	281%
CC(=O)N1c2ccc(C(N)=O)cc2[C@H](Oc2ccc(F)cc2)C[C@@H]1C (relative stereo) [Compound 54, cis-1-acetyl-4-(4-fluorophenoxy)-2-methyl-1,2,3,4-tetrahydroquinoline-6-carboxamide]	148%	186%
CC(=O)N1c2ccccc2[C@H](Nc2ccccc2F)C[C@@H]1C (relative stereo) [Compound 22, cis-1-acetyl-4-[(2-fluorophenyl)amino]-2-methyl-1,2,3,4-tetrahydroquinoline]	150%	383%
CCOC(=O)c1ccc2c(c1)[C@H](Nc1ccc(Cl)cc1)C[C@H](C)N2C(C)=O (relative stereo) [Compound 41, ethyl cis-1-acetyl-4-[(4-chlorophenyl)amino]-2-methyl-1,2,3,4-tetrahydroquinoline-6-carboxylate]	119%	529%
CC(=O)N1c2ccc(F)cc2[C@H](Oc2ccc(F)cc2)C[C@@H]1C (relative stereo) [Compound 34, cis-1-acetyl-4-(4-fluorophenoxy)-6-fluoro-2-methyl-1,2,3,4-tetrahydroquinoline]	288%	257%
CC(=O)N1c2ccccc2[C@H](Oc2ccc(O)cc2)C[C@@H]1C (relative stereo) [Compound 57, cis-1-acetyl-4-(4-hydroxyphenoxy)-2-methyl-1,2,3,4-tetrahydroquinoline]	251%	221%
CC(=O)N1c2ccc(C(=O)N(C)C)cc2C(Nc2ccc(Cl)cc2)CC1C (centres unmarked) [Compound 113, 1-acetyl-4-[(4-chlorophenyl)amino]-N,N,2-trimethyl-1,2,3,4-tetrahydroquinoline-6-carboxamide]	112%	163%
CC(=O)N1c2ccccc2C(Nc2ccc(C#N)cc2)CC1C (centres unmarked) [Compound 9, 1-acetyl-4-[(4-cyanophenyl)amino]-2-methyl-1,2,3,4-tetrahydroquinoline]	405%	406%
CC(=O)N1c2ccc(C(=O)O)cc2C(Nc2ccc(Cl)cc2)CC1C (centres unmarked) [Compound 42, 1-acetyl-4-[(4-chlorophenyl)amino]-2-methyl-1,2,3,4-tetrahydroquinoline-6-carboxylic acid]	102%	303%
CC(=O)N1c2ccc(C#N)cc2C(Nc2ccccc2)CC1C (centres unmarked) [Compound 14, 1-acetyl-6-cyano-2-methyl-4-phenylamino-1,2,3,4-tetrahydroquinoline]	257%	440%
